# Laboratory results published in patent publication US20230310505A1, “COMPOSITION FOR PREVENTING HEARING LOSS CONTAINING MESENCHYMAL STEM CELLS OR EXOSOMES DERIVED THEREFROM AS ACTIVE INGREDIENT” (UNIVERSITY INDUSTRY FOUNDATION, YONSEI UNIVERSITY WONJU …, priority 2020, published 2023).
# pEC50: −log10 of the molar value.
# Tested on: outer hair cells (OHC) and inner hair cells (IHC) of cochlear explants
# Experiment: Ototoxic hearing loss induction: cisplatin treatment of cochlear explants, hair cell viability by immunofluorescence
# Format: cell-based, ICR mice
# Details: cisplatin for 24 hours
# Protocol: It is also known that damage to outer hair cells (OHC) and inner hair cells (IHC) of the cochlea leads to hearing loss.
# After completion of the treatment, the cochlear explants were fixed with PBS containing 4% formalin for 15 minutes and washed with PBS three times. Next, after incubation with PBS containing 0.1% Triton X-100 for 10 minutes, blocking was performed with PBS containing 4% BSA for 30 minutes. Thereafter, incubation was performed for 1 hour with a rabbit anti-mouse myosin 7a primary antibody (1:400, abcam). After washing with PBS three times, incubation was performed for 1 hour with goat anti-rabbit IgG (H+L) Alexa Fluor 488 antibody (1:500, abcam) with Phalloidine Alexa Fluor 647 (1:1000, abcam). After washing with PBS, the coverslip was transferred to a slide and a drop of Fluoroshield with DAPI (Sigma, USA) was gently applied to the coverslip. The coverslip was sealed with clear nail polish and observed under a fluorescence microscope (FIG. 1B), and the number of OHCs and IHCs was measured to calculate the cell viability (FIG. 1C).
smiles,measurement,setting,value
N.N.[Cl][Pt][Cl] [cisplatin],pEC50,apical turn,4.00
same,pEC50,middle turn and basal turn,4.10
